{"source": "ChEMBL document CHEMBL1132093", "about": "“Fecal excretion pattern of bile acids in rats fed high fat diets and neomycin in induced colon tumorigenesis” (1999)", "type_in_all_cases": "functional", "key": {"Rattus norvegicus [1]": {"species": "Rattus norvegicus", "assay": "Effect on colon large bowel tumorigenesis in rats fed with cholesterol and cholic acid diet(Group 2 diet)"}, "Rattus norvegicus [2]": {"species": "Rattus norvegicus", "assay": "Effect on colon large bowel tumorigenesis in rats fed with safflower oil diet(Group 1 diet)"}, "Rattus norvegicus [3]": {"species": "Rattus norvegicus", "assay": "Effect on colon small bowel tumorigenesis in rats fed with cholesterol and cholic acid diet(Group 2 diet)"}, "Rattus norvegicus [4]": {"species": "Rattus norvegicus", "assay": "Effect on colon small bowel tumorigenesis in rats fed with safflower oil diet(Group 1 diet)"}, "Rattus norvegicus [5]": {"species": "Rattus norvegicus", "assay": "Average number of tumors per rat in colon large bowel tumorigenesis in rats fed with cholesterol and cholic acid diet(Group 2 diet)"}, "Rattus norvegicus [6]": {"species": "Rattus norvegicus", "assay": "Average number of tumors per rat in colon large bowel tumorigenesis in rats fed with safflower oil diet(Group 1 diet)"}, "Rattus norvegicus [7]": {"species": "Rattus norvegicus", "assay": "Average number of tumors per rat in colon small bowel tumorigenesis in rats fed with cholesterol and cholic acid diet(Group 2 diet)"}, "Rattus norvegicus [8]": {"species": "Rattus norvegicus", "assay": "Average number of tumors per rat in colon small bowel tumorigenesis in rats fed with safflower oil diet(Group 1 diet)"}}, "data": [{"smiles": "NC[C@@H]1O[C@H](O[C@H]2[C@@H](O)[C@H](O[C@@H]3[C@@H](O)[C@H](N)C[C@H](N)[C@H]3O[C@H]3O[C@H](CN)[C@@H](O)[C@H](O)[C@H]3N)O[C@@H]2CO)[C@H](N)[C@@H](O)[C@@H]1O", "note": "[FRAMYCETIN]", "values": [{"measurement": "Incidence", "setting": "Rattus norvegicus [1]", "value": 80, "unit": "%"}, {"measurement": "Incidence", "setting": "Rattus norvegicus [2]", "value": 98, "unit": "%"}, {"measurement": "Incidence", "setting": "Rattus norvegicus [3]", "value": 25, "unit": "%"}, {"measurement": "Incidence", "setting": "Rattus norvegicus [4]", "value": 22, "unit": "%"}, {"measurement": "No. of tumors", "setting": "Rattus norvegicus [5]", "value": 1.13}, {"measurement": "No. of tumors", "setting": "Rattus norvegicus [6]", "value": 3}, {"measurement": "No. of tumors", "setting": "Rattus norvegicus [7]", "value": 0.5}, {"measurement": "No. of tumors", "setting": "Rattus norvegicus [8]", "value": 0.5}]}]}
